# Measurements as given in US20050032145A1, “Methods for measuring activity of glutamine:fructose 6-phosphate amidotransferase and activity of inhibitors thereof” (priority 2002, published 2005).
# Assays:
# Format in all cases: biochemical
# [1] = molecular target: T1, GFAT-alpha (Homo sapiens, UniProt Q06210); assay: GFAT inhibition, microtiter plate glucosamine 6-phosphate assay (GFAT-alpha); conditions: enzyme expressed in SF9 insect cells; 60 minutes at 37° C.; OD 585 nm; read-out: IC50 (concentration inhibiting 50% of maximum stimulation), GFAT-alpha
# T1 construct: made in house; host or cells: SF9 insect cells (sonicated, centrifuged cell extract)
# Experimental: (§1) For measurement of […], the GFAT enzyme reaction and analysis of the product are preferably carried out directly in a microtiter plate. The preferred reaction volume of 100 μl consists of the substrates glutamine (10 mM) and fructose 6-phosphate (10 mM), phosphate buffered saline (PBS) pH 7.4, ethylenediaminetetraacetic acid (EDTA) (5 mM), dithiothreitol (DTT) (1 mM), and the GFAT enzyme preparation or tissue extract (0.25-50 μl). The incubation mixture is added to the plate, the plate sealed, and placed floating on a 37° C. water bath for 1 hour. Additional incubation mixture is kept on ice to add to standard and control samples. After incubation, non-incubated control and glucosamine 6-phosphate standards of 2.5 to 30 nmoles along with the cold incubator mixture are added to the appropriate wells in the plate. The glucosamine 6-phosphate produced in the incubation mixtures is acetylated by first adding acetic anhydride 1.5% in acetone (10 μl), followed by potassium tetraborate 200 mM (50 μl). The plate is sealed, shaken for 2 minutes on a microshaker, and placed on an 80° C. water bath for 25 minutes. The plate is cooled by placing it on ice for 5 minutes and then Ehrlich's reagent is added (130 μl) (2 g Ehrlich's reagent+0.3 ml water+2.2 ml concentrated hydrochloric acid+17.4 ml acetic acid which is diluted 1:2 in acetic acid before use). The plate is then placed on a 37° C. water bath for 20 minutes and the OD determined at 500-610 nm, preferably 585 nm.
# The reaction mixture is made including enough for standard curve samples and kept on ice. The reaction is started by adding the incubation reagents to the microtiter plate, sealing the plate, and placing the plate in a water bath at 37° C. for 1 hr. Standard curve samples are added to the plate, 2.5 to 30 nmoles/well/10 μl, and the cold mix added to control and standard curve samples. Glucosamine 6-phosphate is acetylated with acetic anhydride 1.5%/acetone 10 μl+potassium tetraborate 200 mM 50 μl, by sealing the plate, shaking for 2 minutes and placing on an 80° C. water bath for 25 minutes, then cooling on ice for 5 minutes. Diluted Ehrlich's reagent 130 μl is added and the plate placed on a 37° C. water bath for 20 minutes. The OD is determined at 585 nm.
# Stimulation of GFAT activity. […] For most testing, a 60-minute incubation at 37° C. is carried out in 96 well microtiter plates. To give the best heat transfer the plates are sealed with a Costar plate sealer and floated on a 37° C. water bath. Air bubbles are removed from the bottom of the plate to ensure proper heat transfer to all wells. The 100 μl reaction volume consists of glutamine 10 mM, fructose 6-phosphate 10 mM, PBS 1×, EDTA 5 mM DTT 1 mM, and the enzyme preparation. […]
# [2] = molecular target: T2, GFAT-beta (Homo sapiens, UniProt O94808); assay: GFAT inhibition, microtiter plate glucosamine 6-phosphate assay (GFAT-beta)
# T2 construct: made in house; host or cells: SF9 insect cells (sonicated, centrifuged cell extract)
# Experimental: as §1, with “The plate is cooled by placing it on ice for 5 minutes and then Ehrlich's reagent is added (130 μl) (2 g Ehrlich's reagent+0.3 ml water+2.2 ml concentrated hydrochloric acid+17.4 ml acetic acid which is diluted 1:2 in acetic acid before use).” left out
# The reaction mixture is made including enough for standard curve samples and kept on ice. […] The OD is determined at 585 nm. […]
# [3] = molecular target: T2, GFAT-beta; assay: Substrate Km determination, Lineweaver-Burk plot (GFAT-beta); conditions: extracts from transfected SF9 insect cells, other substrate at saturating levels
# Experimental: FIG. 3 illustrates the effect of varying concentrations of the substrates glutamine and fructose 6-phosphate on the enzyme activity of GFAT-alpha and GFAT-beta. FIG. 3A is a graph illustrating incubation with 10 μl glutamine 200 mM+10 μl fructose 6-phosphate 3.125, 6.25, 12.5, 25, 50, 100, and 200 mM. FIG. 3B is a graph illustrating incubation with 10 μl fructose 6-phosphate 200 mM+10 μl glutamine 3.125, 6.25, 12.5, 25, 50, 100, and 200 mM. 10 μl of GFAT-alpha and 5 μl of GFAT-beta extracts from transfected SF9 insect cells are incubated with 1) 10 μl glutamine 200 mM+10 μl fructose 6-phosphate 3.125, 6.25, 12.5, 25, 50, 100, and 200 mM, and 2) 10 μl fructose 6-phosphate 200 mM+10 μl glutamine 3.125, 6.25, 12.5, 25, 50, 100, and 200 mM in an incubation media containing 10 μl PBS 10×, 10 μl EDTA 50 mM, 10 μl, DTT 10 mM and water to 100 μl. The plate is sealed with a Costar plate sealer and incubated for 60 minutes at 37° C. by floating on a water bath. Additional incubation mixture is kept on ice to add to standard and control samples. […] After a 20-minute incubation at 37° C., the OD is determined for each well at 585 nm. […]
# FIG. 3C is a table illustrating the Km values of the substrates for the GFAT-alpha and GFAT-beta enzymes calculated from the data generated in FIGS. 3A and 3B. […]
# T1 sequence (Q06210 1-681 isoform Q06210-2 I57T): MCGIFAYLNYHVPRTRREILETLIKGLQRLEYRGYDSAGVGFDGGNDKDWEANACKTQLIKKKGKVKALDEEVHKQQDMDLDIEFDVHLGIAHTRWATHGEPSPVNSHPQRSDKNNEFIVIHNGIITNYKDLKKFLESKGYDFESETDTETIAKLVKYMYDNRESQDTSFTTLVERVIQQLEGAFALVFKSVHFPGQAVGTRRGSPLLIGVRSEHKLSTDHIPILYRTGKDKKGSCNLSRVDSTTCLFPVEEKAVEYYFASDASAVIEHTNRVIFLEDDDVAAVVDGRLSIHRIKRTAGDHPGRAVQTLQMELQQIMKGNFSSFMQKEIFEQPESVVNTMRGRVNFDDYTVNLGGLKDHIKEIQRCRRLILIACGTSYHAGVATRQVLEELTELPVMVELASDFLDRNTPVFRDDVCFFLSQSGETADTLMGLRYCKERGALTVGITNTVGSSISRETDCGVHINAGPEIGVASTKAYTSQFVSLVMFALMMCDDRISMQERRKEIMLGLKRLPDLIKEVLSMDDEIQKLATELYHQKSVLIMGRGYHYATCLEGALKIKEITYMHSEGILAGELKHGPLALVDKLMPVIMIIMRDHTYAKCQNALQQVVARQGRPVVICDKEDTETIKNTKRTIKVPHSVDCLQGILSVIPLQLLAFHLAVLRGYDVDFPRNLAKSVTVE
# T2 sequence (O94808 whole entry): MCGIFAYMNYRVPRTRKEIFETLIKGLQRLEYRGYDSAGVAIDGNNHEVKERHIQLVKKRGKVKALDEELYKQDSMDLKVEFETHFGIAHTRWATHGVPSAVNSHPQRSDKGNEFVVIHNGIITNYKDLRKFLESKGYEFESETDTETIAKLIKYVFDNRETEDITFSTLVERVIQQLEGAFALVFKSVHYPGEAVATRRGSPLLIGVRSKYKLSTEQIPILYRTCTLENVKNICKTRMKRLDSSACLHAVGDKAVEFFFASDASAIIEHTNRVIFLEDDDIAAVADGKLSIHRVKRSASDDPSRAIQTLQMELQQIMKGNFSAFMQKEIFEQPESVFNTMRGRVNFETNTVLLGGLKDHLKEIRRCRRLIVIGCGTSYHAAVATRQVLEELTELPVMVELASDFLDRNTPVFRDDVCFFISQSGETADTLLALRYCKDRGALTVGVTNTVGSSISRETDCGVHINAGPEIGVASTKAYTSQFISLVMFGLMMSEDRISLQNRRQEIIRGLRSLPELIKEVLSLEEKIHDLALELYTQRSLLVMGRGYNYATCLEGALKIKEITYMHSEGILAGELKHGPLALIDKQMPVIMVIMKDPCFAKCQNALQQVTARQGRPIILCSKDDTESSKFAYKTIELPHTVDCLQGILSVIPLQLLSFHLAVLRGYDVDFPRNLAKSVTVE
Km [3] [mM],Molecule,IC50 [1] [µM],further results
–,"[N-]=[N+]=CC(=O)CC[C@H](N)C(=O)O [DON, 6-diazo-5-oxo-L-norleucine]",18,–
–,uridine-diphosphate-N-acetylglucosamine [UDP-N-acetylglucosamine],8,"IC50 ([2]; enzyme expressed in SF9 insect cells, 60 minutes at 37° C., OD 585 nm, read-out: IC50 (concentration inhibiting 50% of maximum stimulation), GFAT-beta): 100 µM; times as much required to inhibit GFAT-beta compared with GFAT-alpha ([2]; ratio of IC50 GFAT-beta to GFAT-alpha): more than 12 times"
1.99,NC(=O)CC[C@H](N)C(=O)O [glutamine],–,–
6.8,O=C(CO)[C@@H](O)[C@H](O)[C@H](O)COP(=O)(O)O [fructose 6-phosphate],–,–
–,"N[C@@H](CNC(=O)CBr)C(=O)O [N3-(bromoacetyl)-L-2,3-diaminopropanoic acid]",0.38,–
–,"COC(=O)/C=C/C(=O)NC[C@H](N)C(=O)O [FMDP, N3-(-4-methoxyfumaroyl)-L-2,3-diaminopropanoic acid]",4,–
